Literature values, collected in patent US20240127967A1.

Test system: MARV
Settings: mouse, in vivo; cited from earlier work

## CC(C)COCC(CN(Cc1ccccc1)c1ccccc1)N1CCCC1 (stereo not shown) [Bepridil]
  protection of mice: strongly protected
